Here are results for eight compounds from ChEMBL document CHEMBL1201862, “PubChem BioAssay data set” (2004).

Among the test systems are 786-0; OVCAR-3; BT-549; RXF 393; SN12C; MCF7; K562; IGROV-1; CAKI-1; MOLT-4; NCI/ADR-RES; TK-10; HCC 2998; UO-31; HL-60; M14; A498; LOX IMVI; SF-539; U-251.
Common to all, as to experiment: NCI anticancer screen, dose series, 48 h

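These data come from cells grown in 96-well plates and exposed to compound for 48 hours at five concentrations. GI50 = concentration required for 50% inhibition of growth.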 Active and inactive are the calls of the source. Cut-off read from the data, not from the text of the source: active = GI50 up to about 1.1 µM and inactive = higher.

With `C[C@@]1(O)C2C3CC4C5C3C1[C@](O)(C42)[C@H]5Br` (stereo not given in full), the GI50 in the test with 786-0, with OVCAR-3, in the test with BT-549, with RXF 393, in the test with SN12C and in the test on MCF7 was > 100 µM (inactive) in each case. Also, the GI50 with K562, with IGROV-1, with CAKI-1, in the test on MOLT-4, in the test with NCI/ADR-RES and in the test with TK-10 was > 100 µM (inactive) each time. In addition, the GI50 in the test with HCC 2998, in the test with UO-31, in the test with HL-60, with M14, in the test with A498 and with LOX IMVI was > 100 µM (inactive) throughout. In addition, the GI50 with SF-539 and in the test on U-251 was > 100 µM (inactive) in each case.

In the case of `c1ccc2c(NCCCCCCCCNc3c4ccccc4nc4ccccc34)c3ccccc3nc2c1`, the GI50 in the test on 786-0 is 0.106 µM (active); in the test with OVCAR-3, 0.37 µM (active); in the test with BT-549 it was 1.16 µM (inactive); with RXF 393 it was 0.0782 µM (active); in the test on SN12C it was 0.356 µM (active); in the test on MCF7, 0.0578 µM (active). Further, the GI50 is 0.0469 µM (active) in the test on K562; 0.0927 µM (active) in the test with IGROV-1; 0.546 µM (active) in the test with CAKI-1; 0.0419 µM (active) in the test on MOLT-4; 4.15 µM (inactive) in the test with NCI/ADR-RES; 1.38 µM (inactive) in the test with TK-10. Moreover, the GI50 in the test on HCC 2998 was 0.0723 µM (active); with UO-31, 1.35 µM (inactive); in the test with HL-60, 0.125 µM (active); in the test with M14, 0.975 µM (active); with A498, 1.26 µM (inactive); with LOX IMVI, 0.181 µM (active). In addition, the GI50 in the test on SF-539 was 0.233 µM (active); in the test with U-251 it was 0.184 µM (active).

Turning to `CN1c2ccccc2S(=O)(=O)n2c(COc3ccc(Cl)cc3)nnc21`, the GI50 is 41.5 µM (inactive) in the test with 786-0; > 100 µM (inactive) in the test with OVCAR-3; 50.6 µM (inactive) in the test with BT-549; 55.1 µM (inactive) in the test with RXF 393; > 100 µM (inactive) with SN12C; > 100 µM (inactive) in the test with MCF7. Also, the GI50 in the test with K562 is > 100 µM (inactive); in the test on IGROV-1, > 100 µM (inactive); in the test with CAKI-1, 85.7 µM (inactive); with MOLT-4 it was > 100 µM (inactive); in the test on NCI/ADR-RES, > 100 µM (inactive); with TK-10, > 100 µM (inactive). The GI50 in the test with HCC 2998 is > 100 µM (inactive); with UO-31 it was > 100 µM (inactive); with HL-60 it was 91 µM (inactive); in the test on M14, > 100 µM (inactive); in the test with A498 it was 30.5 µM (inactive); in the test with LOX IMVI it was > 100 µM (inactive). Further, the values for the GI50 in the test with SF-539 and in the test on U-251 were 35.5 µM (inactive) and 44 µM (inactive), respectively.

With `NC(=O)N/N=C(/CC1C(=O)Oc2ccccc21)c1ccccc1O` (stereo not given), the GI50 in the test with 786-0 is 33.4 µM (inactive); with OVCAR-3, 78.2 µM (inactive); with BT-549 it was 24.2 µM (inactive); with RXF 393 it was 29.6 µM (inactive); with SN12C, 83.6 µM (inactive); with MCF7, 48.1 µM (inactive). In addition, the GI50 with K562 is 30.8 µM (inactive); in the test on IGROV-1, 36.6 µM (inactive); in the test on CAKI-1 it was 49 µM (inactive); in the test on MOLT-4, 20.2 µM (inactive); in the test with NCI/ADR-RES it was 25.9 µM (inactive); in the test with TK-10 it was 53.8 µM (inactive). For the same compound, the GI50 with HCC 2998 was 35 µM (inactive); with UO-31 it was 41.1 µM (inactive); in the test on HL-60 it was 19.6 µM (inactive); with M14, > 100 µM (inactive); with A498 it was 49.3 µM (inactive); with LOX IMVI, 20.4 µM (inactive). For the same compound, the GI50 with SF-539 was 25.6 µM (inactive); in the test on U-251, 30.1 µM (inactive).

For `O=C(O)c1ccc(NC(c2ccccc2)c2ccc3cccnc3c2O)cc1` (stereo not given), the GI50 is 6.04 µM (inactive) in the test on 786-0; 2.99 µM (inactive) in the test with OVCAR-3; 10 µM (inactive) in the test with BT-549; 9.12 µM (inactive) in the test with RXF 393; 6.87 µM (inactive) in the test with SN12C; 4.42 µM (inactive) in the test on MCF7. Besides, the GI50 in the test with K562 was 3.56 µM (inactive); in the test on IGROV-1, 16.5 µM (inactive); in the test with CAKI-1, 7.83 µM (inactive); in the test with MOLT-4, 3.56 µM (inactive); in the test on NCI/ADR-RES, 3.5 µM (inactive); with TK-10, 13.7 µM (inactive). Further, the GI50 in the test with HCC 2998 is 13 µM (inactive); in the test on UO-31, 5.75 µM (inactive); in the test with HL-60 it was 2.65 µM (inactive); with M14, 6.19 µM (inactive); in the test on A498 it was 18.3 µM (inactive); in the test with LOX IMVI, 7.8 µM (inactive). The GI50 in the test on SF-539 was 5.66 µM (inactive); with U-251 it was 4.17 µM (inactive).

For `CCOCC(=O)N[C@H]1CCc2cc(OC)c(OC)c(OC)c2-c2ccc(OC)c(=O)cc21`, the GI50 was 0.0199 µM (active) in the test with 786-0; 0.0148 µM (active) with OVCAR-3; < 0.0321 µM (active) with BT-549; 0.0811 µM (active) in the test with RXF 393; 0.0239 µM (active) in the test with SN12C; 0.0207 µM (active) in the test on MCF7. For the same compound, the GI50 is < 0.0128 µM (active) in the test on K562; 0.0241 µM (active) with IGROV-1; 0.0577 µM (active) in the test on CAKI-1; 0.0231 µM (active) in the test with MOLT-4; 0.982 µM (active) in the test with NCI/ADR-RES; 2.46 µM (inactive) with TK-10. The GI50 is 0.0141 µM (active) with HCC 2998; 3.56 µM (inactive) in the test on UO-31; < 0.01 µM (active) in the test with HL-60; 0.0179 µM (active) in the test on M14; 0.0229 µM (active) in the test with A498; < 0.0125 µM (active) in the test on LOX IMVI. In addition, the figures for the GI50 in the test on SF-539 and in the test with U-251 were 0.0148 µM (active) and 0.0173 µM (active), respectively.

Regarding `CC1CC2CCCC(=O)C2=C(O)O1` (stereo not given), the GI50 in the test with 786-0 is > 100 µM (inactive); in the test on OVCAR-3, > 100 µM (inactive); in the test on BT-549 it was 81.5 µM (inactive); in the test with RXF 393 it was > 100 µM (inactive); in the test on SN12C, > 100 µM (inactive); in the test with MCF7, > 100 µM (inactive). Besides, the GI50 in the test on K562, in the test on IGROV-1, with CAKI-1, in the test with MOLT-4, in the test on NCI/ADR-RES and in the test on TK-10 was > 100 µM (inactive) throughout. Moreover, the GI50 in the test with HCC 2998, with UO-31, in the test with HL-60, in the test on M14, in the test with A498 and in the test with LOX IMVI was > 100 µM (inactive) each time. Also, the GI50 in the test on SF-539 and with U-251 was > 100 µM (inactive) in each case.

On to `CC(C)CC(=O)OC[n+]1ccc(-c2c(COC(=O)NC(C)C)c(COC(=O)NC(C)C)c3n2CCC3)cc1`, for which the GI50 with 786-0 is > 100 µM (inactive); in the test with OVCAR-3 it was > 100 µM (inactive); in the test on BT-549 it was > 100 µM (inactive); with RXF 393 it was > 100 µM (inactive); in the test with SN12C, > 100 µM (inactive); in the test with MCF7, 76.4 µM (inactive). For the same compound, the GI50 in the test on K562 was > 100 µM (inactive); in the test with IGROV-1, > 100 µM (inactive); in the test on CAKI-1, 45.2 µM (inactive); in the test with MOLT-4, 32.3 µM (inactive); in the test with NCI/ADR-RES, > 100 µM (inactive); in the test on TK-10, > 100 µM (inactive). The GI50 in the test with HCC 2998 is > 100 µM (inactive); in the test with UO-31, > 100 µM (inactive); with HL-60, 65.8 µM (inactive); in the test with M14 it was > 100 µM (inactive); with A498, 84.3 µM (inactive); with LOX IMVI it was > 100 µM (inactive). Further, the values for the GI50 in the test on SF-539 and in the test on U-251 were 27.6 µM (inactive) and > 100 µM (inactive), respectively.
